“Also recorded” adds a separate entry of the source. Like-named read-outs stand apart in the source and are kept apart here. Each block holds one compound with its values, some of them ahead of it.
What was measured:
[1] = test system: isomerase (recovery of 11-cis-retinal after bleaching); assay: In vivo murine isomerase assay; conditions: mice, oral gavage
Protocol: The capability of compounds described herein to inhibit isomerase was determined by an in vivo murine isomerase assay. […] The recovery of 11-cis-retinal after bleaching can be used to estimate the activity of isomerase in vivo. Delayed recovery, as represented by lower 11-cis-retinal oxime levels, indicates inhibition of isomerization reaction.
Mice were gavaged with the test compound. […] The mice were allowed to recover 2 hours in the dark. The animals were then sacrificed by carbon dioxide inhalation. Retinoids were extracted from the eye and the regeneration of 11-cis-retinal was assessed at various time intervals.
After the mice were sacrificed, the eyes were immediately removed and placed in liquid nitrogen for storage.
The eyes were placed in 500 μL of bis-tris propane buffer (10 mM, pH˜7.3) and 20 μL of 0.8M hydroxile amine (pH˜7.3). The eyes were cut up into small pieces with small iris scissors and then thoroughly homogenized at 30000 rpm with a mechanical homogenizer (Polytron PT 1300 D) in the tube until no visible tissue remained. 500 μL of methanol and 500 μL of heptane were added to each tube. The tubes were attached to a vortexer so that the contents were mixed thoroughly for 15 minutes in room temperature. The organic phase was separated from the aqueous phase by centrifugation for 10 min at 13K rpm, 4° C. 240 μL of the solution from the top layer (organic phase) was removed and transferred to clean 300 μl glass inserts in HPLC vials using glass pipette and the vials were crimped shut tightly.
The samples were analyzed on an Agilent 1100 HPLC system with normal phase column: SILICA (Beckman Coutlier, dp 5 μm, 4.6 mM×250 mM). […] Loading volume for each sample was 100 μA detection wavelength was 360 nm. The area under the curve for 11-cis retinal oxime was calculated by Agilent Chemstation software and was recorded manually. Data processing was performed using Prizm software.
Positive control mice (no compound administered) were sacrificed fully dark-adapted and the eye retinoids analyzed. Light (bleached) control mice (no compound administered) were sacrificed and retinoids isolated and analyzed immediately after light treatment.
A time course study was performed to determine the isomerase inhibitory activity of the test compound. […] The animals were then “photo-bleached” (5000 Lux white light for 10 minutes) at 2, 4, 8, 16 and 24 hours after dosing, and returned to darkness to allow recovery of the 11-cis-retinal content of the eyes. Mice were sacrificed 2 hours after bleaching, eyes were enucleated, and retinoid content is analyzed by HPLC.
Recovery control mice (vehicle-only treated) were light-treated and left to recover for 2 hours in the dark before sacrifice and analysis. Light control mice (vehicle only treated) were sacrificed for analysis immediately after photo-bleaching.
An in vivo dose response isomerase inhibition study was performed with test compound. […] Recovery and retinoid analysis were performed as described above. Dark control mice were vehicle-only treated, sacrificed fully dark adapted without light treatment, and analyzed. Recovery control mice and light control mice were included in the study as per the initial phase.

[2] = molecular target: T1, recombinant human RPE65 and LRAT (visual cycle isomerase) (Homo sapiens, UniProt Q16518); assay: Human in vitro isomerase inhibition assay; conditions: comparison compounds
T1 sequence (Q16518 2-533): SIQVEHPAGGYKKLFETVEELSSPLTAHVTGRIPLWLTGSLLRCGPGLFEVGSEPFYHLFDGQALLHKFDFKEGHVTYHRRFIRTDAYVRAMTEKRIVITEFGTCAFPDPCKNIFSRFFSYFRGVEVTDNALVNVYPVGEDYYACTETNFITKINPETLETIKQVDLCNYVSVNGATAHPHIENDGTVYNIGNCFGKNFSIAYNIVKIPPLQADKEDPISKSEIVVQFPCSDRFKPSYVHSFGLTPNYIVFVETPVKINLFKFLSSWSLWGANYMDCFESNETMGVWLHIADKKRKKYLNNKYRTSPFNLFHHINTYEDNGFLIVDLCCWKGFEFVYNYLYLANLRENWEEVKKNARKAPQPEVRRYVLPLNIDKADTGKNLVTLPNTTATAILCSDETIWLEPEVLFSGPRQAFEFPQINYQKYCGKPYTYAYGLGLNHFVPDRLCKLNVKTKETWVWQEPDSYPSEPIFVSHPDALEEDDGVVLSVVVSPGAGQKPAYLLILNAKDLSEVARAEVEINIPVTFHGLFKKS

[3] = test system: regeneration of 11-cis-retinal; assay: Single dose time course in the in vivo isomerase assay at 0.3 mg/kg; set-up: species or system BALB/c mice; conditions: BALB/c mice, single oral 0.3 mg/kg; for activity at 0.3 mg/kg: Mus musculus, read-out: Percent Control (Avg. % Inhibition)
Protocol: (§1) All test compounds were stored at room temperature, dessicated.
The compounds were dissolved in di-water at the concentration of 0.068 mg/mL and stored overnight at 4° C.
52 Male BALB/c mice (Charles River Laboratories) were used for this study. The mice were approximately 8 weeks at the initiation of dosing with an average body weight of 23 grams.
The day prior to dose administration 52 BALB/c mice were placed into a dark room and dark adapted for a minimum of 12 hours prior to dose administration. The mice were maintained in the dark for the duration of the study.
(§2) Each animal was removed from its cage and dosed accordingly to the study design in Table 10 (see below). Each animal was administered 0.1 mL of the appropriate test article or vehicle orally using a 1 mL syringe fitted with a 23 gauge oral gavage needle. At 2, 4, 6, 8, 16 or 24 hours following dose administration, animals were removed from the dark and exposed to 5000 Lux white light for 10 minutes to photobleach their eyes. Following the completion of the photobleach the animals were returned to the dark for 2 hours to allow for the regeneration of 11-cis-retinal in the eyes. Two hours after photobleaching each animal was euthanized with carbon dioxide followed by cervical dislocation, in the dark under red light. The light control group was euthanized immediately following photobleaching. Immediately following the cervical dislocation both eyes of each animal were removed and transferred into separate tubes, flash frozen in liquid nitrogen and stored in the dark at −80° C. until processing and analysis.
(§3) All sample processing procedures were performed in the dark under red light.
Extracted samples were analyzed using an Agilent 1100 HPLC system according to the procedure outlined in Table 12 (see below)
(§4) HPLC analysis of the eyes measures the peak area units of the 110cis-Ral-Oxime_syn. Signal.
(§5) Data analysis % inhibition (drug vs. recovery control). % control (drug vs. light control), and One-way ANOVA (followed by Tukey's Multiple Comparison) were performed using peak area units and performed by Prism software. Data are represented as mean and standard deviation.

[4] = test system: retinal isomerase activity (recovery of 11-cis-retinal); assay: Comparative in vivo murine isomerase assay, dose response; set-up: species or system BALB/c mice; conditions: BALB/c mice, 2 hours; for Avg. % Inhibition: 11-cis-retinal, drug vs. recovery control
Protocol: as §1
On the day prior to dose administration compound A and compound D were weighed into new empty glass vials. The compounds were dissolved in di-water at the concentration of 0.833 mg/mL compound A and 0.892 mg/mL compound D, serially diluted into various concentrations, and stored overnight at 4° C.
56 Male BALB/c mice (Charles River Laboratories) were used for this study. The mice were approximately 8 weeks at the initiation of dosing with an average body weight of 24 grams.
The day prior to dose administration 56 BALB/c mice were placed into a dark room and dark adapted for a minimum of 12 hours prior to dose administration. The mice were maintained in the dark for the duration of the study.
as §2, with “Table 4” for “Table 10”, “appropriate compound” for “appropriate test article”, “vehicle via oral gavage” for “vehicle orally”, “needle. Two” for “needle. At 2, 4, 6, 8, 16 or 24”
as §3
Extracted samples were analyzed using an Agilent 1100 HPLC system according to the procedure outlined in Table 6 (see below)
as §4, §5

Compound: COC(=O)N1CCC(COc2cccc([C@H](O)CCN)c2)CC1 [Example 17, (R)-Methyl 4-((3-(3-amino-1-hydroxypropyl)phenoxy)methyl)piperidine-1-carboxylate]
- % Inhibition ([1]; dose 1 mg/kg, time 4 h): 85%

- IC50 [2]: 6.3 nM
Compound: NCC[C@@H](O)c1cccc(NCC2CCCCC2)c1

Compound: NCC[C@@H](O)c1cccc(OCC2CCCOC2)c1 (mixture of isomers) [Example 3, (1R)-3-Amino-1-(3-((tetrahydro-2H-pyran-3-yl)methoxy)phenyl)propan-1-ol]
- % Inhibition ([1]; dose 0.3 mg/kg, time 2 h): 75.1%

- IC50 [2]: 24 nM
- IC50 (dose response experiment) ([4]; single oral dose): 0.59 mg/kg
Compound: NCCC(O)c1cccc(OCC2CCCCO2)c1 (stereo not shown) [compound D, reference compound]
- significance of inhibitory effect on the recovery of 11-cis-retinal vs. recovery control ([3]; 2, 4, 6, 8, 16 and 24 hours, 0.3 mg/kg): not a statistically significant difference, P>0.05 for any time points; also recorded: no significant inhibitory effect at any time points; also recorded: did not exhibit a significant difference from the control group at any time point
- activity at 0.3 mg/kg ([3]; time point 2 hours): 86.8%
- activity at 0.3 mg/kg ([3]; time point 4 hours): 102%
- activity at 0.3 mg/kg ([3]; time point 6 hours): 87.9%
- activity at 0.3 mg/kg ([3]; time point 8 hours): 94.6%
- activity at 0.3 mg/kg ([3]; time point 16 hours): 104%
- activity at 0.3 mg/kg ([3]; time point 24 hours): 89.5%
- Avg. % Inhibition ([4]; oral 0.3 mg/kg, 0.3 mg/kg): no inhibition
- Avg. % Inhibition ([4]; oral 3 mg/kg, 3 mg/kg): same level of inhibition
- significance of inhibitory effect on the recovery of 11-cis-retinal vs. recovery control ([4]; single oral dose 0.03-3 mg/kg): statistically significant difference, P<0.001 for 1 and 3 mg/kg dose levels; also recorded: significant inhibitory effect at 1 mg/kg and 3 mg/kg dose levels
- dose at which 11-cis-retinal recovery was inhibited by 50% ([4]; single oral dose): 0.59 mg/kg

— US9133154B2, “Substituted 3-phenylpropylamine derivatives for the treatment of ophthalmic diseases and disorders” (Acucela Inc., priority 2013, dated 2015)
